Source: the supplement of paper PMC10307832

What was measured:
Assay in all cases: relative viability (nuclei count vs DMSO), 5 days (fraction); higher = more cells survive
NCI-H1944 = system: NCI-H1944
How it was run: (§1)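 Relative viability divides the nuclei count in treated wells by that in vehicle wells. Lung cancer cell lines were seeded in 1536-well plates, dosed by pin tool the next day, and fixed and stained after 5 days in one step with final 0.05% Triton X-100, 1% formaldehyde and 1 ug/ml Hoechst. Dosing was a single drug or a fixed anchor-drug dose plus five library-drug doses (not always all listed) in √10 steps, and values are medians of duplicate plates imaged at 4×.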

UMC-11 = system: UMC-11
How it was run: as §1

LXF-289 = system: LXF-289
How it was run: as §1

LC-2-ad = system: LC-2-ad
How it was run: as §1

COR-L 105 = system: COR-L 105
How it was run: as §1

NCI-H2170 = system: NCI-H2170
How it was run: as §1

HCC-78 = system: HCC-78
How it was run: as §1

A-427 = system: A-427
How it was run: as §1

HCC-366 = system: HCC-366
How it was run: as §1

HOP-62 = system: HOP-62
How it was run: as §1

NCI-H2009 = system: NCI-H2009
How it was run: as §1

LU99A = system: LU99A
How it was run: as §1

NCI-H1915 = system: NCI-H1915
How it was run: as §1

EPLC-272H = system: EPLC-272H
How it was run: as §1

NCI-H1666 = system: NCI-H1666
How it was run: as §1

NCI-H2085 = system: NCI-H2085
How it was run: as §1

NCI-H358 = system: NCI-H358
How it was run: as §1

NCI-H460 = system: NCI-H460
How it was run: as §1

SK-LU-1 = system: SK-LU-1
How it was run: as §1

NCI-H1792 = system: NCI-H1792
How it was run: as §1

Q: What does the source list for Nc1ccn([C@@H]2O[C@H](CO)[C@@H](O)[C@@H]2O)c(=O)n1 [Cytarabine] + C[C@@H](Oc1cc(-c2cnn(C3CCNCC3)c2)cnc1N)c1c(Cl)ccc(F)c1Cl [Crizotinib] (partner 1 µM)?
A: relative viability (NCI-H1944; first compound 0.005 µM): 0.9; relative viability (NCI-H1944; first compound 0.01581 µM): 0.466; relative viability (NCI-H1944; first compound 0.05 µM): 0.367; relative viability (NCI-H1944; first compound 0.1581 µM): 0.2; relative viability (NCI-H1944; first compound 0.5 µM): 0.176; relative viability (UMC-11; first compound 0.005 µM): 0.454; relative viability (UMC-11; first compound 0.01581 µM): 0.52; relative viability (UMC-11; first compound 0.05 µM): 0.336; relative viability (UMC-11; first compound 0.1581 µM): 0.267; relative viability (UMC-11; first compound 0.5 µM): 0.205; relative viability (LXF-289; first compound 0.005 µM): 0.745; relative viability (LXF-289; first compound 0.01581 µM): 0.78; relative viability (LXF-289; first compound 0.05 µM): 0.663; relative viability (LXF-289; first compound 0.1581 µM): 0.339; relative viability (LXF-289; first compound 0.5 µM): 0.389; relative viability (LC-2-ad; first compound 0.005 µM): 0.416; relative viability (LC-2-ad; first compound 0.01581 µM): 0.544; relative viability (LC-2-ad; first compound 0.05 µM): 0.453; relative viability (LC-2-ad; first compound 0.1581 µM): 0.341; relative viability (LC-2-ad; first compound 0.5 µM): 0.295; relative viability (COR-L 105; first compound 0.005 µM): 0.657; relative viability (COR-L 105; first compound 0.01581 µM): 0.725; relative viability (COR-L 105; first compound 0.05 µM): 0.511; relative viability (COR-L 105; first compound 0.1581 µM): 0.393; relative viability (COR-L 105; first compound 0.5 µM): 0.256; relative viability (NCI-H2170; first compound 0.01581 µM): 0.925; relative viability (NCI-H2170; first compound 0.05 µM): 0.912; relative viability (NCI-H2170; first compound 0.1581 µM): 0.605; relative viability (NCI-H2170; first compound 0.5 µM): 0.483; relative viability (HCC-78; first compound 0.005 µM): 0.369; relative viability (HCC-78; first compound 0.01581 µM): 0.302; relative viability (HCC-78; first compound 0.05 µM): 0.282; relative viability (HCC-78; first compound 0.1581 µM): 0.26; relative viability (HCC-78; first compound 0.5 µM): 0.2; relative viability (A-427; first compound 0.005 µM): 0.605; relative viability (A-427; first compound 0.01581 µM): 0.414; relative viability (A-427; first compound 0.05 µM): 0.149; relative viability (A-427; first compound 0.1581 µM): 0.172; relative viability (A-427; first compound 0.5 µM): 0.173; relative viability (HCC-366; first compound 0.005 µM): 0.405; relative viability (HCC-366; first compound 0.01581 µM): 0.43; relative viability (HCC-366; first compound 0.05 µM): 0.216; relative viability (HCC-366; first compound 0.1581 µM): 0.026; relative viability (HCC-366; first compound 0.5 µM): 0.0284; relative viability (HOP-62; first compound 0.005 µM): 0.766; relative viability (HOP-62; first compound 0.01581 µM): 0.49; relative viability (HOP-62; first compound 0.05 µM): 0.379; relative viability (HOP-62; first compound 0.1581 µM): 0.0643; relative viability (HOP-62; first compound 0.5 µM): 0.0736; relative viability (NCI-H2009; first compound 0.005 µM): 1.02; relative viability (NCI-H2009; first compound 0.01581 µM): 1.01; relative viability (NCI-H2009; first compound 0.05 µM): 0.955; relative viability (NCI-H2009; first compound 0.1581 µM): 0.884; relative viability (NCI-H2009; first compound 0.5 µM): 0.298; relative viability (LU99A; first compound 0.005 µM): 0.62; relative viability (LU99A; first compound 0.01581 µM): 0.549; relative viability (LU99A; first compound 0.05 µM): 0.517; relative viability (LU99A; first compound 0.1581 µM): 0.527; relative viability (LU99A; first compound 0.5 µM): 0.498; relative viability (NCI-H1915; first compound 0.005 µM): 0.888; relative viability (NCI-H1915; first compound 0.01581 µM): 0.882; relative viability (NCI-H1915; first compound 0.05 µM): 0.686; relative viability (NCI-H1915; first compound 0.1581 µM): 0.393; relative viability (NCI-H1915; first compound 0.5 µM): 0.333; relative viability (EPLC-272H; first compound 0.005 µM): 0.667; relative viability (EPLC-272H; first compound 0.01581 µM): 0.379; relative viability (EPLC-272H; first compound 0.05 µM): 0.577; relative viability (EPLC-272H; first compound 0.1581 µM): 0.326; relative viability (EPLC-272H; first compound 0.5 µM): 0.368; relative viability (NCI-H1666; first compound 0.005 µM): 0.794; relative viability (NCI-H1666; first compound 0.01581 µM): 0.945; relative viability (NCI-H1666; first compound 0.05 µM): 0.612; relative viability (NCI-H1666; first compound 0.1581 µM): 0.358; relative viability (NCI-H1666; first compound 0.5 µM): 0.388; relative viability (NCI-H2085; first compound 0.005 µM): 0.718; relative viability (NCI-H2085; first compound 0.01581 µM): 0.883; relative viability (NCI-H2085; first compound 0.05 µM): 0.799; relative viability (NCI-H2085; first compound 0.1581 µM): 0.552; relative viability (NCI-H2085; first compound 0.5 µM): 0.621; relative viability (NCI-H358; first compound 0.005 µM): 0.488; relative viability (NCI-H358; first compound 0.01581 µM): 0.5; relative viability (NCI-H358; first compound 0.05 µM): 0.352; relative viability (NCI-H358; first compound 0.1581 µM): 0.319; relative viability (NCI-H358; first compound 0.5 µM): 0.231; relative viability (NCI-H460; first compound 0.005 µM): 0.77; relative viability (NCI-H460; first compound 0.01581 µM): 0.851; relative viability (NCI-H460; first compound 0.05 µM): 0.144; relative viability (NCI-H460; first compound 0.1581 µM): 0.0229; relative viability (NCI-H460; first compound 0.5 µM): 0.0238; relative viability (SK-LU-1; first compound 0.005 µM): 0.957; relative viability (SK-LU-1; first compound 0.01581 µM): 0.83; relative viability (SK-LU-1; first compound 0.05 µM): 0.694; relative viability (SK-LU-1; first compound 0.1581 µM): 0.605; relative viability (SK-LU-1; first compound 0.5 µM): 0.398; relative viability (NCI-H1792; first compound 0.005 µM): 0.624; relative viability (NCI-H1792; first compound 0.01581 µM): 0.882; relative viability (NCI-H1792; first compound 0.05 µM): 0.861; relative viability (NCI-H1792; first compound 0.1581 µM): 0.53; relative viability (NCI-H1792; first compound 0.5 µM): 0.465
